In EP0412158A1, “ONCOSTATIC DRUG” (priority 1987, dated 1988):
Values joined by “and” are separate entries in the source; they are usually repeats but may differ in a detail not shown here. Equal values may be shown once. Read-outs that look alike come from different tables or passages of the source. Marks after values point to notes of the source that are not given here.

Columns and labels:
human lung cancer (OAT) [1] = type: in vivo, female nude mice; details: 200 mg/kg ip ×10; for T/C: tumor volume
Method: A patch of human lung cancer [Cancer cells recommended by National Cancer Institute (NCL) of the U.S.A.] (OAT) measuring approximately 2 x 2 mm in area was subcutaneously transplanted to each of female nude mice. An aqueous solution containing the aforementioned heteropoly acid salt (Compound M) in a concentration of 10 mg/ml was administered by intraperitoneal injection (ip) to the mice at a dose of 200 mg/kg once per day for 10 consecutive days following the 12th day of transplantation. For 15 days following the stop of the administration, the volumes of tumor in the mice were measured to evaluate the effect of compound. At ip (x 10), significant suppression of hyperplasia began to appear about the 4th day. Even after completion of the administration 25th day of the transplantation, strong suppression of hyperplasia of cancer of about 50% was maintained. Generally by the NCI standard, a ratio of suppression exceeding 50% is rated as effective. Thus, the compound was confirmed to be effective. For comparison, mice to which no aqueous solution was administered were similarly tested.

human lung cancer (OAT) [2] = type: in vivo, female ICR/cd-1 mice; details: Example 39: 100 mg/kg (so in the source), IP 1~6

Nas [IMo6O24] • 34H2O [Compound M]
suppression of hyperplasia of cancer (human lung cancer (OAT) [1]; after completion of the administration, 25th day): about 50%
Volume of tumor, Average value±SE (human lung cancer (OAT) [1]; day 1): 457.6±59.3 mm3
Volume of tumor, Average value±SE (human lung cancer (OAT) [1]; day 2): 501.7±32.9 mm3
T/C (human lung cancer (OAT) [1]; day 2): 65.2* %
Volume of tumor, Average value±SE (human lung cancer (OAT) [1]; day 3): 617.0±165.7 mm3
T/C (human lung cancer (OAT) [1]; day 3): 58.3%
Volume of tumor, Average value±SE (human lung cancer (OAT) [1]; day 4): 610.0±118.1 mm3
T/C (human lung cancer (OAT) [1]; day 4): 40.9** %
Volume of tumor, Average value±SE (human lung cancer (OAT) [1]; day 5): 711.2±109.2 mm3
T/C (human lung cancer (OAT) [1]; day 5): 40.8** %
Volume of tumor, Average value±SE (human lung cancer (OAT) [1]; day 6): 1003.6±188.6 mm3
T/C (human lung cancer (OAT) [1]; day 6): 39.9** %
Volume of tumor, Average value±SE (human lung cancer (OAT) [1]; day 7): 1033.6±121.5 mm3
T/C (human lung cancer (OAT) [1]; day 7): 26.0** %
Volume of tumor, Average value±SE (human lung cancer (OAT) [1]; day 8): 1257.8±166.2 mm3
T/C (human lung cancer (OAT) [1]; day 8): 27.7** %
Volume of tumor, Average value±SE (human lung cancer (OAT) [1]; day 12): 2366.6±364.0 mm3
T/C (human lung cancer (OAT) [1]; day 12): 41.6** %
Volume of tumor, Average value±SE (human lung cancer (OAT) [1]; day 15): 4493.2±562.2 mm3
T/C (human lung cancer (OAT) [1]; day 15): 48.0** %
Volume of tumor, Average value±SE (human lung cancer (OAT) [1]; day 19): 5735.0±1038.1 mm3
T/C (human lung cancer (OAT) [1]; day 19): 43.3** %
Volume of tumor, Average value±SE (human lung cancer (OAT) [1]; day 22): 8493.2±1352.2 mm3
T/C (human lung cancer (OAT) [1]; day 22): 54.8** %
Volume of tumor, Average value±SE (human lung cancer (OAT) [1]; day 25): 9672.6±1638.0 mm3
T/C (human lung cancer (OAT) [1]; day 25): 53.2** %
T/C (human lung cancer (OAT) [2]): 60.0%
Tumorous activity T7/T0 (human lung cancer (OAT) [2]; group mean): 1.56±0.24
Tumorous activity T7/T0 (human lung cancer (OAT) [2]; individual mice, 100 mg/kg): 1.25 and 1.40 and 2.05
Tumorous activity T7 (human lung cancer (OAT) [2]; size of tumor on 7th day, individual mice, 100 mg/kg): 12.5 omu and 14.0 omu and 20.5 omu
